Laboratory results as given in patent EP4759815A1, “FUSED TRICYCLIC COMPOUND, PHARMACEUTICAL COMPOSITION THEREOF, AND USE THEREOF” (Haihe Biopharma Co., Ltd., priority 2023, dated 2025).
Where two headings read alike, the source gives them in different places.

How the values were obtained:
MDA-MB-436 cells = experiment: MDA-MB-436 cell proliferation inhibition test (CellTiter-Glo, 7 days); assay type: cell-based; details: Homo sapiens, MDA-MB-436, 168 h, 7 days incubation
[1] = target: T1, recombinant human PARP2 protein (Homo sapiens, UniProt Q9UGN5); experiment: PARP2 inhibitory activity (histone substrate, chemiluminescent ELISA); assay type: biochemical
T1 construct: purchased BPS 80502

[2] = target: Recombinant human PARP1 protein (Homo sapiens, UniProt P09874); experiment: PARP1 inhibitory activity (histone substrate, chemiluminescent ELISA); assay type: biochemical; details: for PARP1/2 Fold selectivity: ratio of PARP2 IC50 to PARP1 IC50
PDE3A = target: T2, PDE3A (Homo sapiens, UniProt Q14432); experiment: PDE3A enzyme activity test (IMAP FP); assay type: biochemical; details: PDE3A protein 0.2 nM, FAM-cAMP 200 nM, 60 minutes at rt; off-target safety
T2 construct: purchased ICE G13020203013

[3] = Preliminary pharmacokinetic tests in mice; assay type: in vivo; details: male, ICR; for AUC(0-t) / clearance / half-life: mouse plasma; for bioavailability: plasma, oral, mouse, p.o.(5mg/kg) versus i.v.(1mg/kg)
[4] = Test of blood-brain barrier properties in rats; assay type: in vivo; details: male, Wistar Han, brain/plasma; rat, intravenous 1 mg/kg, after 4 h; read-out: Ratio % (brain/blood)
[5] = histone substrate, read-out: PARP2 IC50
[6] = histone substrate, 500 µM NAD+ added to the substrate solution, read-out: PARP1 IC50

Recombinant human PARP1 protein, sequence (P09874 whole entry): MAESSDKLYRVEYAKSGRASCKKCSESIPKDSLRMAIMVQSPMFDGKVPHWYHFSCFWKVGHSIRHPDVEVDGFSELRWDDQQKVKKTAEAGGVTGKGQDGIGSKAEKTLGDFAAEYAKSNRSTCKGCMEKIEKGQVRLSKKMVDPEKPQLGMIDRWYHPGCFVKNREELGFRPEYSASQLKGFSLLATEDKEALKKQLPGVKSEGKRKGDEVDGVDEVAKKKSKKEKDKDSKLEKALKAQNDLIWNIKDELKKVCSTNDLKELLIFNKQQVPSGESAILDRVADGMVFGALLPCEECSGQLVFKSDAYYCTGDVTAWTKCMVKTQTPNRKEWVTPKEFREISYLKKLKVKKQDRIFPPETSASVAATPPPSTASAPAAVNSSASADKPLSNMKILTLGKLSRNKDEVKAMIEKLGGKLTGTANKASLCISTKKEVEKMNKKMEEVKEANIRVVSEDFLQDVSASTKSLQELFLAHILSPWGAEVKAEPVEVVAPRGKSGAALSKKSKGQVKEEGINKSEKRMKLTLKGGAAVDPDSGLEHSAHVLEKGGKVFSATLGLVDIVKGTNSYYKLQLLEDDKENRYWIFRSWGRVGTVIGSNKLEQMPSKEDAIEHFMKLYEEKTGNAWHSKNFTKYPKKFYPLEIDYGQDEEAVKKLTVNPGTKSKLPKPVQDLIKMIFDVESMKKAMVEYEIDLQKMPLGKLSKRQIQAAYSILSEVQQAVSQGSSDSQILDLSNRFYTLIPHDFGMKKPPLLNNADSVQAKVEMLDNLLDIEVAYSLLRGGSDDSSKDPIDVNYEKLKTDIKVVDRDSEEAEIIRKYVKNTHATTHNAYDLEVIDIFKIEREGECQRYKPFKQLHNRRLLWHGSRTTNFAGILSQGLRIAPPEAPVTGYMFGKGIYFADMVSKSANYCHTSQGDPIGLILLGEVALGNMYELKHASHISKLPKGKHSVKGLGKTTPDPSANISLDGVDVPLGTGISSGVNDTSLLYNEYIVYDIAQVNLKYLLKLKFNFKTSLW
T2 sequence (Q14432 whole entry, species assumed): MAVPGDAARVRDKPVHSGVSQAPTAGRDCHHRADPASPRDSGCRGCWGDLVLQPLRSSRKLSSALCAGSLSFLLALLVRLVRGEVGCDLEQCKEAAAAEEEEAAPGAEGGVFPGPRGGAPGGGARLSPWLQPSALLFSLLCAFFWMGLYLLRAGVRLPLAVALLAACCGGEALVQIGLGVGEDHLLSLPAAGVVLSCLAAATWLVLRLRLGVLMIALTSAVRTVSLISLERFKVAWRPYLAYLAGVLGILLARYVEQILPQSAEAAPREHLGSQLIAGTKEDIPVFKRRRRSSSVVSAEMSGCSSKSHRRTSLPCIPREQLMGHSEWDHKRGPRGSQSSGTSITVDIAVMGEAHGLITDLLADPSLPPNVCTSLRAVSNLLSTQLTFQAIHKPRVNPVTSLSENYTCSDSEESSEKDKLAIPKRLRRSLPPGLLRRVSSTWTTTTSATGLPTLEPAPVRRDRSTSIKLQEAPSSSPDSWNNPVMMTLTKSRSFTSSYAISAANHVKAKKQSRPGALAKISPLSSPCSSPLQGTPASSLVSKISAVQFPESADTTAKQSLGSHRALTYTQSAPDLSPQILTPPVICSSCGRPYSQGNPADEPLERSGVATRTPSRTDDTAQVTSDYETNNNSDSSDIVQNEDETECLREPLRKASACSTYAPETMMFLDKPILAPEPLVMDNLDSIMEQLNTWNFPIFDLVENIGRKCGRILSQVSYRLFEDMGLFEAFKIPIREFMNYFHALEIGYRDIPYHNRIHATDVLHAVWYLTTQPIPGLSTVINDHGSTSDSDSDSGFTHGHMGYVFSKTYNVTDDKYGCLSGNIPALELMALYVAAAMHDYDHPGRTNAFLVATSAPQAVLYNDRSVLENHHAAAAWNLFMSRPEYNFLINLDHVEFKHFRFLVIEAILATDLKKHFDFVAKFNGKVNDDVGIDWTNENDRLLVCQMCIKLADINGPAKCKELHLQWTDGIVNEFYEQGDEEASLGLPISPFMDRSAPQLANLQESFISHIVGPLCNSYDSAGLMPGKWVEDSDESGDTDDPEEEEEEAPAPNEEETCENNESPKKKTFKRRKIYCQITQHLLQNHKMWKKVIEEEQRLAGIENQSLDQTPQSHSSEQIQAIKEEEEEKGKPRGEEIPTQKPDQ
T1 sequence (Q9UGN5 whole entry): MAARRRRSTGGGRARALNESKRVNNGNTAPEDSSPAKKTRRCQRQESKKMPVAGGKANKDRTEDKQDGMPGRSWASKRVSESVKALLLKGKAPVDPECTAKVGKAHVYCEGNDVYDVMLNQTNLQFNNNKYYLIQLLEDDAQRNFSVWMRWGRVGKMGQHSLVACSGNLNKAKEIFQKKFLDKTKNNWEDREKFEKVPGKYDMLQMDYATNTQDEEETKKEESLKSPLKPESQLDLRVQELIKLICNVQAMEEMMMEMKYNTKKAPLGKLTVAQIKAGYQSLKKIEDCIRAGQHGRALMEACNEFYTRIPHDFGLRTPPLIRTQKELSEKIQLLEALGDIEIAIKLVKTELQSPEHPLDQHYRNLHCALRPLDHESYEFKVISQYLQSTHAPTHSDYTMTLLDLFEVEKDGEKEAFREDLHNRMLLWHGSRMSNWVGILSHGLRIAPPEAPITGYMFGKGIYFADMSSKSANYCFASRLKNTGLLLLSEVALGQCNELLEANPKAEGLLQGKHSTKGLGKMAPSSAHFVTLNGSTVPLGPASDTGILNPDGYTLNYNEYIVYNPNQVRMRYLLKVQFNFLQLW

Row | Structure (SMILES) | IC50 (MDA-MB-436 cells) | IC50 [1, 5] | IC50 [2, 6] | PARP1/2 Fold selectivity [2] | also measured
1 | CNC(=O)c1ccc(N2CCN(Cc3cc4c5c(c(C)nn5c3)N(C)C(=O)N4)CC2)c(C)n1 [Compound 57] | 0.0013 µM | – | – | – | –
2 | CNC(=O)c1ccc(N2CCN(Cc3cc4c5c(cnn5C5(CC5)C(=O)N4)c3)C[C@H]2C)c(C)n1 [Compound 40] | 0.0179 µM | 0.081 µM | 0.00023 µM | 353.6 | IC50 (PDE3A): 0.635 µM; AUC(0-t) ([3]; iv, i.v.(1mg/kg)): 4.41 µg·h/mL; clearance ([3]; iv, i.v.(1mg/kg)): 0.228 L/h/kg; half-life ([3]; iv, i.v.(1mg/kg)): 3.6 h; bioavailability [3]: 124%; AUC(0-t) ([3]; po, p.o.(5mg/kg)): 31.1 µg·h/mL; half-life ([3]; po, p.o.(5mg/kg)): 3.1 h
3 | CCN1C(=O)Nc2cc(CN3CCN(c4ccc(C(=O)NC)nc4Cl)CC3)cn3ncc1c23 [Compound 34] | 0.0023 µM | – | – | – | –
4 | CNC(=O)c1ccc(N2CCN(Cc3cc4c5c(cnn5c3)N(C)C(=O)N4)CC2)c(C)n1 [Compound 19] | < 0.00152 µM | 0.732 µM | 0.00142 µM | 516 | IC50 (PDE3A): 0.433 µM
5 | CNC(=O)c1ccc(N2CCN(Cc3cc4c5c(cnn5C5(CC5)C(=O)N4)c3)CC2)c(Cl)n1 [Compound 38] | < 0.00152 µM | – | – | – | –
6 | CNC(=O)c1ccc(N2CCN(Cc3cc4c5c(cnn5c3)N(C3CC3)C(=O)N4)CC2)c(F)n1 [Compound 53] | 0.0022 µM | 0.0455 µM | 0.00216 µM | 21.1 | –
7 | CNC(=O)c1ccc(N2CCN(Cc3cc4c5c(cnn5c3)N(CC(C)O)C(=O)N4)CC2)c(C)n1 (stereo not shown) [Compound 67] | 0.392 µM | – | – | – | –
8 | CNC(=O)c1ccc(N2CCN(Cc3cc4c5c(cnn5c3)N(C(C)C)C(=O)N4)CC2)c(F)n1 [Compound 55] | – | 1.01 µM | 0.00264 µM | 382 | –
9 | CNC(=O)c1ccc(N2CCN(Cc3cc4c5c(cnn5c3)N(C3CCC3)C(=O)N4)[C@H](C)C2)c(Cl)n1 [Compound 80] | 0.0187 µM | – | – | – | –
10 | CCN1C(=O)Nc2cc(CN3CCN(c4ccc(C(=O)NC)nc4C)CC3)cn3ncc1c23 [Compound 30] | 0.0027 µM | 0.211 µM | 0.00124 µM | 170.8 | –
11 | CCC1C(=O)Nc2cc(CN3CCN(c4ccc(C(=O)NC)nc4Cl)CC3)cc3cnn1c23 (stereo not shown) [Compound 8] | 0.0127 µM | – | – | – | –
12 | CNC(=O)c1ccc(N2CCN(Cc3cc4c5c(c3)ncn5[C@H](C3CC3)C(=O)N4)CC2)c(Cl)n1 [Compound 47-2] | 0.0167 µM | 0.281 µM | 0.00121 µM | 232.5 | IC50 (PDE3A): > 10 µM
13 | CNC(=O)c1ccc(N2CCN(Cc3cc4c5c(c(C(F)(F)F)nn5c3)N(C)C(=O)N4)CC2)c(C)n1 [Compound 58] | 0.0012 µM | 0.204 µM | 0.00099 µM | 206 | –
14 | CCN1C(=O)Nc2cc(CN3CCN(c4ccc(C(=O)NC)nc4F)CC3)cn3ncc1c23 [Compound 33] | < 0.00152 µM | – | – | – | –
15 | CNC(=O)c1ccc(N2CCN(Cc3cc4c5c(cnn5C(C)C(=O)N4)c3)CC2)c(C)n1 (stereo not shown) [Compound 7] | – | – | – | – | Kp at 4 h [4]: 0.138
16 | CNC(=O)c1ccc(N2CCN(Cc3cc4c5c(cnn5c3)N(C3CCC3)C(=O)N4)[C@H](C)C2)c(C)n1 [Compound 79] | 0.0218 µM | – | – | – | –
17 | CNC(=O)c1ccc(N2CCN(Cc3cc4c5c(cnn5c3)N(C3CCC3)C(=O)N4)CC2)c(C)n1 [Compound 59] | 0.0065 µM | – | – | – | IC50 (PDE3A): > 10 µM
18 | CC[C@@H]1C(=O)Nc2cc(CN3CCN(c4ccc(C(=O)NC)nc4F)CC3)cc3cnn1c23 [Compound 5-2] | 0.0148 µM | – | 0.00103 µM | – | IC50 (PDE3A): > 10 µM
19 | CNC(=O)c1ccc(N2CCN(Cc3cc4c5c(c3)ncn5[C@H](C3CC3)C(=O)N4)CC2)c(C)n1 [Compound 49-2] | 0.018 µM | 0.431 µM | 0.00153 µM | 281.5 | IC50 (PDE3A): > 10 µM
20 | CNC(=O)c1ccc(N2CCN(Cc3cc4c5c(cnn5c3)N(CC(F)(F)F)C(=O)N4)CC2)c(C)n1 [Compound 61] | 0.0162 µM | – | – | – | IC50 (PDE3A): 1.44 µM
21 | CNC(=O)c1ccc(N2CCN(Cc3cc4c5c(cnn5c3)NC(=O)N4)CC2)c(C)n1 [Compound 64] | 0.0175 µM | – | – | – | –
22 | CNC(=O)c1ccc(N2CCN(Cc3cc4c5c(cnn5[C@@H](C5CC5)C(=O)N4)c3)CC2)c(Cl)n1 [Compound 43-1] | 0.0087 µM | 0.575 µM | 0.00167 µM | 344.5 | –

Row | Structure (SMILES) | IC50 (MDA-MB-436 cells) | IC50 [1, 5] | IC50 [2, 6] | PARP1/2 Fold selectivity [2] | also measured
23 | CNC(=O)c1ccc(N2CCN(Cc3cc4c5c(cnn5c3)N(C3CCC3)C(=O)N4)C[C@H]2C)c(C)n1 [Compound 72] | – | 0.474 µM | 0.0049 µM | 97.6 | –
24 | CCCN1C(=O)Nc2cc(CN3CCN(c4ccc(C(=O)NC)nc4C)CC3)cn3ncc1c23 [Compound 62] | 0.0209 µM | 1.4 µM | 0.0033 µM | 422.3 | –
25 | CCC1C(=O)Nc2cc(CN3CCN(c4ccc(C(=O)NC)nc4F)CC3)cc3cnn1c23 (stereo not shown) [Compound 5] | 0.0154 µM | – | 0.00078 µM | – | –
26 | CNC(=O)c1ccc(N2CCN(Cc3cc4c5c(c3)ncn5C(C3CCC3)C(=O)N4)CC2)c(Cl)n1 (stereo not shown) [Compound 81] | 0.0046 µM | 2.41 µM | 0.0042 µM | 574.1 | –
27 | CNC(=O)c1ccc(N2CCN(Cc3cn4ncc5c4c(c3C)NC(=O)N5C3CC3)CC2)c(C)n1 [Compound 66] | 0.0481 µM | 1.38 µM | 0.0033 µM | 417.5 | –
28 | CNC(=O)c1ccc(N2CCN(Cc3cc4c5c(cnn5c3)N(CCO)C(=O)N4)CC2)c(C)n1 [Compound 63] | 0.0168 µM | 1.83 µM | 0.0021 µM | 827.4 | –
29 | CNC(=O)c1ccc(N2CCN(Cc3cc4c5c(cnn5c3)N(C3CC3)C(=O)N4)CC2)c(C)n1 [Compound 54] | < 0.00152 µM | 0.0452 µM | 0.0004 µM | 21.1 | IC50 (PDE3A): 0.428 µM
30 | CNC(=O)c1ccc(N2CCN(Cc3cc4c5c(cnn5C(C)C(=O)N4)c3)CC2)c(Cl)n1 (stereo not shown) [Compound 6] | – | – | – | – | AUC(0-t) ([3]; iv, i.v.(1mg/kg)): 5.03 µg·h/mL; clearance ([3]; iv, i.v.(1mg/kg)): 0.198 L/h/kg; half-life ([3]; iv, i.v.(1mg/kg)): 1.3 h; bioavailability [3]: 117%; AUC(0-t) ([3]; po, p.o.(5mg/kg)): 28.7 µg·h/mL; half-life ([3]; po, p.o.(5mg/kg)): 2.7 h
31 | CNC(=O)c1ccc(N2CCN(Cc3cc4c5c(cnn5c3)N(C3CCC3)C(=O)N4)CC2)c(Cl)n1 [Compound 73] | 0.0032 µM | – | – | – | –
32 | CNC(=O)c1ccc(N2CCN(Cc3cc4c5c(c3)ncn5[C@@H](C3CC3)C(=O)N4)CC2)c(C)n1 [Compound 49-1] | 0.0204 µM | 1.31 µM | 0.00071 µM | 1852 | –
33 | CNC(=O)c1ccc(N2CCN(Cc3cc4c5c(cnn5[C@H](C)C(=O)N4)c3)CC2)c(Cl)n1 [Compound 6-2] | – | – | – | – | IC50 (PDE3A): 0.239 µM
34 | CNC(=O)c1ccc(N2CCN(Cc3cc4c5c(cnn5C5(CC5)C(=O)N4)c3)CC2)c(C)n1 [Compound 39] | < 0.00152 µM | – | – | – | –
35 | CC1C(=O)Nc2cc(CN3CCN(c4ccc(C#N)cn4)CC3)cc3cnn1c23 (stereo not shown) [Compound 35] | 0.213 µM | – | – | – | –
36 | CNC(=O)c1ccc(N2CCN(Cc3cc4c5c(cnn5c3)N(C(C)C)C(=O)N4)CC2)c(C)n1 [Compound 56] | 0.015 µM | 1.22 µM | 0.00334 µM | 364.5 | IC50 (PDE3A): 0.878 µM
37 | CNC(=O)c1ccc(N2CCN(Cc3cc4c5c(cnn5c3)N(CC3CCC3)C(=O)N4)CC2)c(C)n1 [Compound 69] | 0.72 µM | – | – | – | –
38 | CNC(=O)c1ccc(N2CCN(Cc3cc4c5c(cnn5CC(=O)N4)c3)CC2)c(Cl)n1 [Compound 26] | – | 1.44 µM | 0.00028 µM | 5150 | –
39 | CNC(=O)c1ccc(N2CCN(Cc3cc4cnn5c4c(c3F)NC(=O)C53CC3)CC2)c(Cl)n1 [Compound 41] | 0.0044 µM | 0.0719 µM | 0.0001 µM | 719 | –
40 | CNC(=O)c1ccc(N2CCN(Cc3cc4c5c(c3)ncn5[C@@H](C3CC3)C(=O)N4)CC2)c(Cl)n1 [Compound 47-1] | 0.0202 µM | 0.901 µM | 0.00068 µM | 1326 | IC50 (PDE3A): > 10 µM
41 | CNC(=O)c1ccc(N2CCN(Cc3cc4c5c(cnn5C5(CC5)C(=O)N4)c3)CC2)c(F)n1 [Compound 37] | < 0.00152 µM | 0.0087 µM | 0.00024 µM | 36.3 | –
42 | CCN1C(=O)Nc2cc(CN3CCN(c4ccc(C(=O)NC)nc4F)CC3)cc3c2c1nn3C [Compound B1, 5-(4-((3-ethyl-1-methyl-4-oxo-1,3,4,5-tetrahydropyrazolo[3,4,5-d]quinazolin-7-yl)methyl)piperazine-1-yl)-6-fluoro-N-methylpicolinamide, reference compound] | – | – | – | 2.64 | IC50 [1]: 0.0037 µM; IC50 [2]: 0.0014 µM
43 | CC[C@H]1C(=O)Nc2cc(CN3CCN(c4ccc(C(=O)NC)nc4F)CC3)cc3cnn1c23 [Compound 5-1] | 0.0274 µM | – | 0.00135 µM | – | –
44 | CNC(=O)c1ccc(N2CCN(Cc3cc4c5c(cnn5[C@H](C5CC5)C(=O)N4)c3)CC2)c(Cl)n1 [Compound 43-2] | 0.0017 µM | 0.139 µM | 0.00104 µM | 133.3 | –
